Measurements from PubChem BioAssay AID1963984 (Molecular Pharmacology Branch, DTP, NCI, 2024).

System: 233499-124-R-J3-PDC spheroids with HUVEC/MSC, viability
Assay: Anticancer human tumor 233499-124-R-J3-PDC patient-derived colon adenocarcinoma cell line growth inhibition [PI3K]
Settings: for IC50: curve of first compound; for viability, T/C: stronger effect = lower value
Summary of the method: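 Agents were dosed from a top concentration near clinical Cmax (otherwise 10 microM) in half-log decrements, alone or combined with PI3K inhibitors. The spheroids contain tumor cells plus endothelial (HUVEC) and MSC stroma; viability is measured.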

[1] = second compound 0.00316 µM, first compound 0.0316 µM
[2] = second compound 0.00316 µM, first compound 0.1 µM
[3] = second compound 0.00316 µM, first compound 0.316 µM
[4] = second compound 0.00316 µM, first compound 1 µM
[5] = second compound 0.00316 µM, first compound 3.16 µM
[6] = second compound 0.00316 µM, first compound 10 µM
[7] = second compound 0.01 µM, first compound 0.0316 µM
[8] = second compound 0.01 µM, first compound 0.1 µM
[9] = second compound 0.01 µM, first compound 0.316 µM
[10] = second compound 0.01 µM, first compound 1 µM
[11] = second compound 0.01 µM, first compound 3.16 µM
[12] = second compound 0.01 µM, first compound 10 µM
[13] = second compound 0.0316 µM, first compound 0.0316 µM
[14] = second compound 0.0316 µM, first compound 0.1 µM
[15] = second compound 0.0316 µM, first compound 0.316 µM
[16] = second compound 0.0316 µM, first compound 1 µM
[17] = second compound 0.0316 µM, first compound 3.16 µM
[18] = second compound 0.0316 µM, first compound 10 µM
[19] = second compound 0.1 µM, first compound 0.0316 µM
[20] = second compound 0.1 µM, first compound 0.1 µM
[21] = second compound 0.1 µM, first compound 0.316 µM
[22] = second compound 0.1 µM, first compound 1 µM
[23] = second compound 0.1 µM, first compound 3.16 µM
[24] = second compound 0.1 µM, first compound 10 µM
[25] = second compound 0.316 µM, first compound 0.0316 µM
[26] = second compound 0.316 µM, first compound 0.1 µM
[27] = second compound 0.316 µM, first compound 0.316 µM
[28] = second compound 0.316 µM, first compound 1 µM
[29] = second compound 0.316 µM, first compound 3.16 µM
[30] = second compound 0.316 µM, first compound 10 µM
[31] = second compound 1 µM, first compound 0.0316 µM
[32] = second compound 1 µM, first compound 0.1 µM
[33] = second compound 1 µM, first compound 0.316 µM
[34] = second compound 1 µM, first compound 1 µM
[35] = second compound 1 µM, first compound 3.16 µM
[36] = second compound 1 µM, first compound 10 µM
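Further: spheroids exposed to agents for seven days before readout.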
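Wherever viability, T/C is given: percent viability relative to DMSO vehicle control taken as 100%.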

Compound: CC1(C)CCC(Nc2ncc(C(F)(F)F)c(-c3c[nH]c4c(P(C)(C)=O)c(C#N)ccc34)n2)CN1 (centres undefined) + CC(Nc1ccc2c(c1)OCCn1cc(N3C(=O)OCC3C(F)F)nc1-2)C(N)=O
- IC50 (second compound 0.00316 µM): 73.8 nM
- IC50 (second compound 0.01 µM): < 31.6 nM
- IC50 (second compound 0.0316 µM): 94 nM
- IC50 (second compound 0.1 µM): < 31.6 nM
- IC50 (second compound 0.316 µM): 84.3 nM
- IC50 (second compound 1 µM): < 31.6 nM
- viability, T/C [1]: 55.3%
- viability, T/C [2]: 58.7%
- viability, T/C [3]: 24.6%
- viability, T/C [4]: 19.3%
- viability, T/C [5]: 34.4%
- viability, T/C [6]: 1.55%
- viability, T/C [7]: 39.4%
- viability, T/C [8]: 42.9%
- viability, T/C [9]: 34.9%
- viability, T/C [10]: 22.1%
- viability, T/C [11]: 22.7%
- viability, T/C [12]: 1.45%
- viability, T/C [13]: 79.9%
- viability, T/C [14]: 44.4%
- viability, T/C [15]: 31.4%
- viability, T/C [16]: 17%
- viability, T/C [17]: 17.1%
- viability, T/C [18]: 1.3%
- viability, T/C [19]: 36.5%
- viability, T/C [20]: 40.7%
- viability, T/C [21]: 24.5%
- viability, T/C [22]: 13.8%
- viability, T/C [23]: 18.9%
- viability, T/C [24]: 4.74%
- viability, T/C [25]: 67.4%
- viability, T/C [26]: 43%
- viability, T/C [27]: 34.3%
- viability, T/C [28]: 19.4%
- viability, T/C [29]: 20.7%
- viability, T/C [30]: 2.38%
- viability, T/C [31]: 49%
- viability, T/C [32]: 29.3%
- viability, T/C [33]: 28.6%
- viability, T/C [34]: 18.6%
- viability, T/C [35]: 25.9%
- viability, T/C [36]: 0.86%

Compound: Cn1nccc1Nc1nccc(-c2ccn(C(CO)c3ccc(Cl)c(F)c3)c(=O)c2)n1 (centres undefined) + CC(Nc1ccc2c(c1)OCCn1cc(N3C(=O)OCC3C(F)F)nc1-2)C(N)=O
- IC50 (second compound 0.00316 µM): > 10000 nM
- IC50 (second compound 0.01 µM): 9870 nM
- IC50 (second compound 0.0316 µM): > 10000 nM
- IC50 (second compound 0.1 µM): > 10000 nM
- IC50 (second compound 0.316 µM): 694 nM
- IC50 (second compound 1 µM): 211 nM
- viability, T/C [1]: 81.3%
- viability, T/C [2]: 95.2%
- viability, T/C [3]: 80.5%
- viability, T/C [4]: 104%
- viability, T/C [5]: 52.7%
- viability, T/C [6]: 58.2%
- viability, T/C [7]: 83%
- viability, T/C [8]: 81.6%
- viability, T/C [9]: 74.3%
- viability, T/C [10]: 74.9%
- viability, T/C [11]: 59.5%
- viability, T/C [12]: 50.2%
- viability, T/C [13]: 95.6%
- viability, T/C [14]: 100%
- viability, T/C [15]: 71.8%
- viability, T/C [16]: 55.7%
- viability, T/C [17]: 79.3%
- viability, T/C [18]: 66%
- viability, T/C [19]: 76.3%
- viability, T/C [20]: 77.3%
- viability, T/C [21]: 82.3%
- viability, T/C [22]: 63.2%
- viability, T/C [23]: 53.1%
- viability, T/C [24]: 48.1%
- viability, T/C [25]: 78.3%
- viability, T/C [26]: 73%
- viability, T/C [27]: 58.6%
- viability, T/C [28]: 45.9%
- viability, T/C [29]: 39.6%
- viability, T/C [30]: 36.3%
- viability, T/C [31]: 55.8%
- viability, T/C [32]: 58.6%
- viability, T/C [33]: 43.5%
- viability, T/C [34]: 41.6%
- viability, T/C [35]: 38.9%
- viability, T/C [36]: 27.8%
